Test results taken from patent US4746349A, “Method and compositions for suppressing the nitrification of ammonium in plant growth medium” (American Cyanamid Company, priority 1986, dated 1988).
Values joined by “and” are separate entries in the source; they are usually repeats but may differ in a detail not shown here. Equal values may be shown once. Where a name gives a salt, the structure may show the parent alone.

Key:
Nitrosomonos = test: Nitrification of ammonium amended field soil incubated at 38° C. (ammonium recovery, nitrate); conditions: soil 38° C.; for Ammonium Recovery, reported as nitrogen / Nitrate, reported as nitrogen: 0.50 ppm, 200 ppm N
Protocol: (§1) Determination of Nitrification Inhibition of Soil amended with 200 ppm of nitrogen as ammonium sulfate and 0.5 ppm of Nitrapyrin or 0.5 ppm of Maduramicin, monoammonium salt.
(§2) Soil samples prepared as described in Example 1 above are incubated at 38° C. for 20 weeks. Samples are taken at intervals during the 20 week period, extracted with 2M KCl (10:1 v/w), and assayed for ammonium nitrite and nitrate by standard steam distillation methods.

Nitrabacter = test: Nitrite in ammonium amended field soil incubated at 38° C.; conditions: soil 38° C.; for Nitrite, reported as nitrogen: 0.50 ppm, 200 ppm N
Protocol: as §1, §2

Urease = Urease activity of urea amended soil, 38° C., 24 hrs; format: biochemical
Protocol: Urease activity: Five grams (5 g) oven-dry soil is treated with 5 ml of aqueous urea solution (1000 ug/g soil), with or without the test compound, and incubated in 65 ml screw-capped glass bottles at 38° C. for 24 hrs. Three replicates of each treatment are established. Phenylphosphorodiamide (PPD) is used as a urease inhibitor for comparison with Maduramicin monoammonium salt. Urea remaining is determined after extracting the soil for 60 minutes (with shaking) with 50 ml of 2M KCl containing 0.5 ug/ml of phenylmercuric acetate and filtering the soil suspension. Urea in the extract is determined colorimetrically (Douglas & Bremner, 1970). The percentage inhibition is calculated from (A-B)/(C-B) X 100-% inhibition; where A=the amount of urea found after incubation with the compound, B=the amount of urea found in the non-treated soil, and C=the amount of urea added.

[1] = test system: corn (Dekalb T2000, B73×LH 38); test: Field evaluation: yield of corn, silt loam location; format: in vivo
From the text: Field Evaluation: Field evaluations are based on the N content of corn leaf tissue and grain yield utilizing two soil types. Replicate (4X) field plots are established at two different locations, one having (I) silt loam soil and one (II) with sandy loam soil. These soils had been previously cropped to non-fertilized corn to reduce the level of residual N. Maduramicin monoammonium salt is applied (0.25, 0.125, 0.07 ppm) with NH3 (84 or 168 kg N/ha) through a "downstream" by an injection system into silt loam plots. Nitrapyrin (0.25 ppm=0.56 kg a.i./ha), nitrogen checks, benzyl alcohol (1.16L/ha) (BA) and a O nitrogen check are included for comparison. Individual replicate plot sizes are 3.04M×22.8M (4, 76-cm corn rows×22.8M long) Anhydrous ammonia are injected on 76-cm centers.
Urea, treated or non-treated with Maduramicin monoammonium salt is broadcast on the surface of sandy loam plots. Plots are then planted with corn the day following treatment. Dekalb T2000 is planted 10 May on silt loam plots and Pioneer 3352 is planted 11 May in sandy loam plots.
Corn ear leaf tissues collected at silking on silt loam plots or 60 days post silking (on silt loam and sandy loam plots) are collected from each plot and assayed for total N (AOAC procedures). Grain yields are determined by harvesting the two center rows×15.2 m of each plot.

[2] = test system: corn (Dekalb T2000, B73×LH 38); test: Field evaluation: corn ear leaf tissue nitrogen, silt loam plots; format: in vivo; conditions: inhibitor 0.11 kg/ha, ear leaf at silking

## CO[C@@H]1[C@@H](OC)[C@H](C)[C@@](O)(CC(=O)O)O[C@H]1[C@H](C)[C@H]1O[C@@]2(CC[C@@](C)([C@H]3CC[C@@](C)([C@@H]4O[C@@H]([C@H]5O[C@](C)(O)[C@H](C)C[C@@H]5C)C[C@@H]4O[C@@H]4C[C@H](OC)[C@@H](OC)[C@H](C)O4)O3)O2)C[C@H](O)[C@H]1C [Maduramicin monoammonium salt, Maduramicin]
Nitrosomonos; 0.5 ppm
  Activity against Nitrosomonos, in words: good activity
Nitrosomonos; 0.5 ppm, 20 weeks
  Nitrification inhibition compared with nitrapyrin, in words: slightly better than that obtained with nitrapyrin
Nitrosomonos; week 0
  Ammonium Recovery, reported as nitrogen: 193 ppm
  Nitrate, reported as nitrogen: 18 ppm
Nitrosomonos; week 1
  Ammonium Recovery, reported as nitrogen: 178 ppm
  Nitrate, reported as nitrogen: 20 ppm
Nitrosomonos; week 2
  Ammonium Recovery, reported as nitrogen: 193 ppm
  Nitrate, reported as nitrogen: 17 ppm
Nitrosomonos; week 4
  Ammonium Recovery, reported as nitrogen: 199 ppm
  Nitrate, reported as nitrogen: 9 ppm
Nitrosomonos; week 7
  Ammonium Recovery, reported as nitrogen: 208 ppm
  Nitrate, reported as nitrogen: 15 ppm
Nitrosomonos; week 9
  Ammonium Recovery, reported as nitrogen: 168 ppm
  Nitrate, reported as nitrogen: 52 ppm
Nitrosomonos; week 12
  Ammonium Recovery, reported as nitrogen: 154 ppm
  Nitrate, reported as nitrogen: 76 ppm
Nitrosomonos; week 16
  Ammonium Recovery, reported as nitrogen: 129 ppm
  Nitrate, reported as nitrogen: 112 ppm
Nitrosomonos; week 20
  Ammonium Recovery, reported as nitrogen: 95 ppm
  Nitrate, reported as nitrogen: 111 ppm
Nitrabacter; 0.5 ppm
  Activity against Nitrabacter, in words: no activity
Nitrabacter; week 0
  Nitrite, reported as nitrogen: 9 ppm
Nitrabacter; week 1
  Nitrite, reported as nitrogen: 8 ppm
Nitrabacter; week 2
  Nitrite, reported as nitrogen: 4 ppm
Nitrabacter; week 4
  Nitrite, reported as nitrogen: 3 ppm
Nitrabacter; week 7
  Nitrite, reported as nitrogen: -5 ppm
Nitrabacter; week 9
  Nitrite, reported as nitrogen: 9 ppm
Nitrabacter; week 12
  Nitrite, reported as nitrogen: 6 ppm
Nitrabacter; week 16
  Nitrite, reported as nitrogen: 19 ppm
Nitrabacter; week 20
  Nitrite, reported as nitrogen: 37 ppm
Urease; (A-B)/(C-B) X 100, urea 1000 ug/g soil
  % INHIBITION (urease): 16%
Urease; average of 3 replicates, urea 1000 ug/g soil
  AVERAGE amount of urea remaining: 483 µg/g
Urease; single replicates, urea 1000 ug/g soil
  AMOUNT REMAINING (urea): 492 µg/g and 477 µg/g
[1]; N 84 kg/ha, chemical 0.11 kg/ha
  AVERAGE YIELD 4-REPLICATES: 136.6 HECTOLITERS/HECTARE
[1]; N 84 kg/ha, chemical 0.28 kg/ha
  AVERAGE YIELD 4-REPLICATES: 129.6 HECTOLITERS/HECTARE
[1]; N 84 kg/ha, chemical 0.56 kg/ha
  AVERAGE YIELD 4-REPLICATES: 131.4 HECTOLITERS/HECTARE
[1]; N 168 kg/ha, chemical 0.11 kg/ha
  AVERAGE YIELD 4-REPLICATES: 154.0 HECTOLITERS/HECTARE
[1]; N 168 kg/ha, chemical 0.28 kg/ha
  AVERAGE YIELD 4-REPLICATES: 146.2 HECTOLITERS/HECTARE
[1]; N 168 kg/ha, chemical 0.56 kg/ha
  AVERAGE YIELD 4-REPLICATES: 147.9 HECTOLITERS/HECTARE
[2]; NH3 84 kg N/ha
  Corn Leaf Tissue Analysis (total N): 257 10^2 ug/g
[2]; NH3 168 kg N/ha
  Corn Leaf Tissue Analysis (total N): 268 10^2 ug/g
